This note sets out measurements from patent publication US8188077B2, “Apoptosis-inducing agents for the treatment of cancer and immune and autoimmune diseases” (Abbott Laboratories, priority 2010, dated 2012).

This experiment addresses T1, Bcl-2 protein (Homo sapiens, UniProt P10415, DELINS35-91DVEENRTEAPEGTESE, form not given).
T1 construct: fused on or other part: Bcl-xL (Q07817) residues 29-44 stand in place of Bcl-2's own unstructured loop 35-91; The C-terminal membrane anchor (208-239) is absent
Put plainly: Bcl-2 fluorescence polarization assay (FPA) binding. The conditions noted are these: 10 nM Bcl-2 protein, 1 nM fluorescein-labeled BAX peptide, room temperature, read-out: Bcl-2 FPA 11pt Ki. As to the method: Assays for the inhibition of Bcl-2 were performed in 96-well microtiter plates. Compounds of the instant invention were diluted in DMSO to concentrations between […] and 10 pM and introduced into each well of the plate. A mixture totaling 125 µL per well of assay buffer (20 mM phosphate buffer (pH 7.4), 1 mM EDTA, 0.05% PF-68), 10 nM of Bcl-2 protein (prepared according to the procedure described in PNAS 2001, 98, 3012-3017), 1 nM fluorescein-labeled BAX peptide (prepared in-house), and the DMSO solution of the compound of the instant invention was shaken for 2 minutes and placed in a LJL Analyst (LJL Bio Systems, CA. Polarization was measured at room temperature using a continuous Fluorescein lamp (excitation 485 nm, emission 530 nm). Ki values were calculated using Microsoft Excel.

T1 sequence (P10415 with tags, fused parts or gaps with the stated changes): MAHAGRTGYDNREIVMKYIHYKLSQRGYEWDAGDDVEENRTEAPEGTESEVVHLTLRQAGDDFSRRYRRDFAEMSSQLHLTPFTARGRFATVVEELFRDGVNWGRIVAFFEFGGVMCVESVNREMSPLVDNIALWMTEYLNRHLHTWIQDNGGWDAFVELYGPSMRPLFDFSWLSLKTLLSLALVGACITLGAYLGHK

Take `C[C@@H]1[C@@H](Nc2cccc(C=C3CCN(c4ccc(C(=O)NS(=O)(=O)c5ccc(NCC6CCOCC6)c([N+](=O)[O-])c5)cc4)CC3)c2)C[C@H]2C[C@@H]1C2(C)C` [Example 73, N-({3-nitro-4-[(tetrahydro-2H-pyran-4-ylmethyl)amino]phenyl}sulfonyl)-4-[4-(3-{[(1S,2S,3S,5R)-2,6,6-trimethylbicyclo[3.1.1]hept-3-yl]amino}benzylidene)piperidin-1-yl]benzamide]: the Ki is 0.0932 µM.
On to `C[C@@H]1[C@@H](N2CCN(c3ccc(C(=O)NS(=O)(=O)c4ccc(NCC5CCCCC5)c([N+](=O)[O-])c4)cc3)CC2)C[C@H]2C[C@@H]1C2(C)C` [Example 53, N-({4-[(cyclohexylmethyl)amino]-3-nitrophenyl}sulfonyl)-4-{4-[(1S,2S,3S,5R)-2,6,6-trimethylbicyclo[3.1.1]hept-3-yl]piperazin-1-yl}benzamide], for which the Ki is 0.845 µM.
For the compound `C[C@@H]1[C@H]2C[C@@H](C[C@H]1Oc1ccc(C(=O)NS(=O)(=O)c3ccc(NC4CCOCC4)c([N+](=O)[O-])c3)cc1)C2(C)C` [Example 85, N-{[3-nitro-4-(tetrahydro-2H-pyran-4-ylamino)phenyl]sulfonyl}-4-{[(1R,2R,3R,5S)-2,6,6-trimethylbicyclo[3.1.1]hept-3-yl]oxy}benzamide], the Ki stood at 2.88 µM.
Regarding `C[C@@H]1[C@@H](N(Cc2ccc(-c3ccc(C(=O)NS(=O)(=O)c4ccc(NCC5CCCCC5)c([N+](=O)[O-])c4)cc3)cc2)C(=O)CCc2ccccc2)C[C@H]2C[C@@H]1C2(C)C` [Example 60, N-({4-[(cyclohexylmethyl)amino]-3-nitrophenyl}sulfonyl)-4′-({(3-phenylpropanoyl)[(1S,2S,3S,5R)-2,6,6-trimethylbicyclo[3.1.1]hept-3-yl]amino}methyl)biphenyl-4-carboxamide], the Ki is 0.504 µM.
As to `O=C(NS(=O)(=O)c1ccc(N[C@H](CCN2CCOCC2)CSc2ccccc2)c([N+](=O)[O-])c1)c1ccc(N2CCN(CC34CC5CC(CC(C5)C3)C4)CC2)cc1` [Example 10, 4-{4-[adamantan-1-ylmethyl]piperazin-1-yl}-N-[(4-{[(2R)-4-(morpholin-4-yl)-1-(phenylthio)butan-2-yl]amino}-3-nitrophenyl)sulfonyl]benzamide], the Ki was below 0.02 µM.
Turning to `O=C(NS(=O)(=O)c1ccc(NC2CCOCC2)c([N+](=O)[O-])c1)c1ccc(N2CC3CC2CN3C(=O)C23CC4CC(CC(C4)C2)C3)cc1` (centres unmarked) [Example 43, 4-{5-[adamantan-1-ylcarbonyl]-2,5-diazabicyclo[2.2.1]hept-2-yl}-N-{[3-nitro-4-(tetrahydro-2H-pyran-4-ylamino)phenyl]sulfonyl}benzamide], the Ki was above 6.25 µM.
As for `O=C(NS(=O)(=O)c1ccc(NCC2CCOCC2)c([N+](=O)[O-])c1)c1ccc(N2CCN(Cc3ccccc3-c3ccc(-c4nc(-c5ccccc5)cs4)s3)CC2)cc1` [Example 62, N-({3-nitro-4-[(tetrahydro-2H-pyran-4-ylmethyl)amino]phenyl}sulfonyl)-4-(4-{2-[5-(4-phenyl-1,3-thiazol-2-yl)-2-thienyl]benzyl}piperazin-1-yl)benzamide], the Ki stood at 0.281 µM.
For `C[C@@H]1[C@@H](Nc2ccccc2CN2CCN(c3ccc(C(=O)NS(=O)(=O)c4ccc(NCC5CCOCC5)c([N+](=O)[O-])c4)cc3)CC2)C[C@@H]2C[C@H]1C2(C)C` [Example 32, N-({3-nitro-4-[(tetrahydro-2H-pyran-4-ylmethyl)amino]phenyl}sulfonyl)-4-[4-(2-{[(1R,2S,3S,5S)-2,6,6-trimethylbicyclo[3.1.1]hept-3-yl]amino}benzyl)piperazin-1-yl]benzamide], the Ki came to 0.0919 µM.
On to `C[C@@H]1[C@@H](NC(=O)C23CCC(C=C2c2ccccc2CN2CCN(c4ccc(C(=O)NS(=O)(=O)c5ccc(NCC6CCOCC6)c([N+](=O)[O-])c5)cc4)CC2)C3(C)C)C[C@H]2C[C@@H]1C2(C)C` [Example 36, 7,7-dimethyl-2-{2-[(4-{4-[({3-nitro-4-[(tetrahydro-2H-pyran-4-ylmethyl)amino]phenyl}sulfonyl)carbamoyl]phenyl}piperazin-1-yl)methyl]phenyl}-N-[(1S,2S,3S,5R)-2,6,6-trimethylbicyclo[3.1.1]hept-3-yl]bicyclo[2.2.1]hept-2-ene-1-carboxamide], for which the Ki was found to be 0.121 µM.
In the case of `CC1C2CC(C=C2c2ccccc2CN2CCN(c3ccc(C(=O)NS(=O)(=O)c4ccc(NCC5CCOCC5)c([N+](=O)[O-])c4)cc3)CC2)C1(C)C` (centres unmarked) [Example 28, N-({3-nitro-4-[(tetrahydro-2H-pyran-4-ylmethyl)amino]phenyl}sulfonyl)-4-(4-{2-[5,5,6-trimethylbicyclo[2.2.1]hept-2-en-2-yl]benzyl}piperazin-1-yl)benzamide], the Ki came to 0.0296 µM.
On to `O=C(NS(=O)(=O)c1ccc(NCC2CCCCC2)c([N+](=O)[O-])c1)c1ccc(N2CCN(CC(=O)C34CC5CC(CC(C5)C3)C4)CC2)cc1` [Example 49, 4-(4-{2-[adamantan-1-yl]-2-oxoethyl}piperazin-1-yl)-N-({4-[(cyclohexylmethyl)amino]-3-nitrophenyl}sulfonyl)benzamide], for which the Ki was determined as 0.342 µM.
Then `C[C@@H]1[C@@H](N(C(=O)c2ccccc2)C2CCN(c3ccc(C(=O)NS(=O)(=O)c4ccc(NCC5CCCCC5)c([N+](=O)[O-])c4)cc3)CC2)C[C@H]2C[C@@H]1C2(C)C` [Example 3, 4-(4-{benzoyl[(1S,2S,3S,5R)-2,6,6-trimethylbicyclo[3.1.1]hept-3-yl]amino}piperidin-1-yl)-N-({4-[(cyclohexylmethyl)amino]-3-nitrophenyl}sulfonyl)benzamide], with 0.065 µM.
Regarding `C[C@@H]1[C@@H](NC2CCC(C)(C)CC2CN2CCN(c3ccc(C(=O)NS(=O)(=O)c4ccc(NCC5CCOCC5)c([N+](=O)[O-])c4)cc3)CC2)C[C@@H]2C[C@H]1C2(C)C` (stereo partly drawn) [Example 21, 4-{4-[(5,5-dimethyl-2-{[(1R,2S,3S,5S)-2,6,6-trimethylbicyclo[3.1.1]hept-3-yl]amino}cyclohexyl)methyl]piperazin-1-yl}-N-({3-nitro-4-[(tetrahydro-2H-pyran-4-ylmethyl)amino]phenyl}sulfonyl)benzamide], the inhibition constant Ki was 5.6 µM.
As to `CC1(C)C2C=C(c3ccccc3CN3CCN(c4ccc(C(=O)NS(=O)(=O)c5ccc(NCC6CCOCC6)c([N+](=O)[O-])c5)cc4)CC3)C1(C(=O)NC1CC1)CC2` (centres unmarked) [Example 38, N-cyclopropyl-7,7-dimethyl-2-{2-[(4-{4-[({3-nitro-4-[(tetrahydro-2H-pyran-4-ylmethyl)amino]phenyl}sulfonyl)carbamoyl]phenyl}piperazin-1-yl)methyl]phenyl}bicyclo[2.2.1]hept-2-ene-1-carboxamide], the Ki was 0.149 µM.
Then `O=C(NS(=O)(=O)c1ccc(NCC2CCOCC2)c([N+](=O)[O-])c1)c1ccc(N2CCN(Cc3ccccc3N3CC4CCC(CC4)C3)CC2)cc1` [Example 33, 4-(4-{2-[3-azabicyclo[3.2.2]non-3-yl]benzyl}piperazin-1-yl)-N-({3-nitro-4-[(tetrahydro-2H-pyran-4-ylmethyl)amino]phenyl}sulfonyl)benzamide], with below 0.02 µM; and `CC1(C)OB(c2ccccc2CN2CCN(c3ccc(C(=O)NS(=O)(=O)c4ccc(NCC5CCOCC5)c([N+](=O)[O-])c4)cc3)CC2)OC1(C)C` [Example 67, N-({3-nitro-4-[(tetrahydro-2H-pyran-4-ylmethyl)amino]phenyl}sulfonyl)-4-{4-[2-(4,4,5,5-tetramethyl-1,3,2-dioxaborolan-2-yl)benzyl]piperazin-1-yl}benzamide], with 4.04 µM; and `CC1(C)[C@H]2CCC(Nc3ccccc3CN3CCN(c4ccc(C(=O)NS(=O)(=O)c5ccc(NCC6CCOCC6)c([N+](=O)[O-])c5)cc4)CC3)[C@@H]1C2` (stereo partly drawn) [Example 18, 4-[4-(2-{[(1R,5S)-6,6-dimethylbicyclo[3.1.1]hept-2-yl]amino}benzyl)piperazin-1-yl]-N-({3-nitro-4-[(tetrahydro-2H-pyran-4-ylmethyl)amino]phenyl}sulfonyl)benzamide], with below 0.02 µM.
With `CC12CC(CN(c3ccc(S(=O)(=O)NC(=O)c4ccc(N5CCN(Cc6ccccc6-c6ccc(Cl)cc6)CC5)cc4)cc3)C1=O)C2` [Example 14, 4-{4-[(4′-chlorobiphenyl-2-yl)methyl]piperazin-1-yl}-N-{[4-(1-methyl-2-oxo-3-azabicyclo[3.1.1]hept-3-yl)phenyl]sulfonyl}benzamide], the Ki was determined as 0.0474 µM.
Then `O=C(NS(=O)(=O)c1ccc(NC2CCOCC2)c([N+](=O)[O-])c1)c1ccc(OCCC23CC4CC(CC(C4)C2)C3)cc1` [Example 51, 4-{2-[adamantan-1-yl]ethoxy}-N-{[3-nitro-4-(tetrahydro-2H-pyran-4-ylamino)phenyl]sulfonyl}benzamide], with 1.05 µM.
As for `C[C@@H]1[C@@H](N(C(=O)Cc2ccccc2)C2CCN(c3ccc(C(=O)NS(=O)(=O)c4ccc(NCC5CCCCC5)c([N+](=O)[O-])c4)cc3)CC2)C[C@H]2C[C@@H]1C2(C)C` [Example 5, N-({4-[(cyclohexylmethyl)amino]-3-nitrophenyl}sulfonyl)-4-(4-{(phenylacetyl)[(1S,2S,3S,5R)-2,6,6-trimethylbicyclo[3.1.1]hept-3-yl]amino}piperidin-1-yl)benzamide], the Ki was 0.0592 µM.
